Assay results as given in patent US12673945B2, “3-((8-((1H-pyrazol-4-yl)amino)imidazo[1,2-a]pyridin-3-yl)ethinyl)-n-phenylbenzamide derivative, method for preparing same, and pharmaceutical composition containing same as active ingredient for prevention or treatment of cancer” (DAEGU-GYEONGBUK MEDICAL INNOVATION FOUNDATION, priority 2020, dated 2026).

Legend:
Format in all cases: cell-based
[1] = tested on: Parental (Ba/F3); assay: Ba/F3 cell proliferation inhibition; details: BaF3; 72 hours, Cell Counting Kit-8
Summary of the method: (§1)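 GI50 derived from CCK-8 absorbance at 450 nm (2 h development), expressed relative to DMSO vehicle. Cells (parental or T315I-Bcr-Abl Ba/F3, 1×10^4/well) received nine threefold-diluted concentrations, final 0 to 10 μM, for 72 h at 37 °C.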

[2] = tested on: T315I-Bcr-Abl (Ba/F3); assay: Ba/F3 cell proliferation inhibition; details: BaF3; 72 hours, Cell Counting Kit-8
Summary of the method: as §1

[3] = tested on: KOPM28 cells; assay: human CML cell proliferation inhibition; details: 72 hours, Cell Counting Kit-8
Summary of the method: (§2)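 Growth inhibition over 72 h at 37 °C in Bcr-Abl (TCCS, KOPM28) or T315I-Bcr-Abl (T315I-TCCS, T315I-KOPM28) human CML cells, 1×10^4 cells/well. Nine 5-fold dilutions gave final 0 to 10 μM, with DMSO as control. GI50 was derived from CCK-8 A450 as percent of vehicle.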

[4] = tested on: T315I-KOPM28 cells; assay: human CML cell proliferation inhibition; details: 72 hours, Cell Counting Kit-8
Summary of the method: as §2

[5] = tested on: T315I-TCCS cells; assay: human CML cell proliferation inhibition; details: 72 hours, Cell Counting Kit-8
Summary of the method: as §2

[6] = tested on: TCCS cells; assay: human CML cell proliferation inhibition; details: 72 hours, Cell Counting Kit-8
Summary of the method: as §2

GI50 [2] | Compound | GI50 [1] | GI50 [3] | GI50 [4] | GI50 [5] | GI50 [6]
50 to 500 nM | Cc1cc(F)c(C(=O)Nc2cc(-c3cnn(C)c3)cc(C(C)(C)C#N)c2)cc1C#Cc1cnc2c(Nc3cn[nH]c3)cccn12 [Example 77, 5-((8-((1H-pyrazol-4-yl)amino)imidazo[1,2-a]pyridin-3-yl)ethynyl)-N-(3-(2-cyanopropan-2-yl)-5-(1-methyl-1H-pyrazol-4-yl)phenyl)-2-fluoro-4-methylbenzamide] | > 5000 nM | < 10 nM | > 100 nM | 100 nM | < 10 nM
50 to 500 nM | Cc1cc(F)c(C(=O)Nc2cc(-c3ccncc3)cc(C(C)(C)C#N)c2)cc1C#Cc1cnc2c(Nc3cn[nH]c3)cccn12 [Example 78, 5-((8-((1H-pyrazol-4-yl)amino)imidazo[1,2-a]pyridin-3-yl)ethynyl)-N-(3-(2-cyanopropan-2-yl)-5-(pyridin-4-yl)phenyl)-2-fluoro-4-methylbenzamide] | > 5000 nM | 100 nM | > 100 nM | > 100 nM | < 10 nM
50 to 500 nM | Cc1cc(F)c(C(=O)Nc2cc(-c3cccnc3)cc(C(C)(C)C#N)c2)cc1C#Cc1cnc2c(Nc3cn[nH]c3)cccn12 [Example 79, 5-((8-((1H-pyrazol-4-yl)amino)imidazo[1,2-a]pyridin-3-yl)ethynyl)-N-(3-(2-cyanopropan-2-yl)-5-(pyridin-3-yl)phenyl)-2-fluoro-4-methylbenzamide] | > 5000 nM | < 10 nM | > 100 nM | 100 nM | < 10 nM
50 to 500 nM | Cc1cc(F)c(C(=O)Nc2cc(N3CCN(C)CC3)cc(C(C)(C)C#N)c2)cc1C#Cc1cnc2c(Nc3cn[nH]c3)cccn12 [Example 80, 5-((8-((1H-pyrazol-4-yl)amino)imidazo[1,2-a]pyridin-3-yl)ethynyl)-N-(3-(2-cyanopropan-2-yl)-5-(4-methylpiperazin-1-yl)phenyl)-2-fluoro-4-methylbenzamide] | > 5000 nM | < 10 nM | > 100 nM | 100 nM | < 10 nM
50 to 500 nM | Cc1cc(F)c(C(=O)Nc2cc(N(C)CCN(C)C)cc(C(C)(C)C#N)c2)cc1C#Cc1cnc2c(Nc3cn[nH]c3)cccn12 [Example 81, 5-((8-((1H-pyrazol-4-yl)amino)imidazo[1,2-a]pyridin-3-yl)ethynyl)-N-(3-(2-cyanopropan-2-yl)-5-((2-(dimethylamino)ethyl)(methyl)amino)phenyl)-2-fluoro-4-methylbenzamide] | 500 to 5000 nM | < 10 nM | > 100 nM | 100 nM | < 10 nM

Continued, compound first:

Compound | GI50 [2] | GI50 [1] | GI50 [3] | GI50 [4] | GI50 [5] | GI50 [6]
Cc1cc(F)c(C(=O)Nc2cc(CN3CCN(CCO)CC3)cc(C(F)(F)F)c2)cc1C#Cc1cnc2c(Nc3cnn(C)c3)cccn12 [Example 69, 2-fluoro-N-(3-((4-(2-hydroxyethyl)piperazin-1-yl)methyl)-5-(trifluoromethyl)phenyl)-4-methyl-5-((8-((1-methyl-1H-pyrazol-4-yl)amino)imidazo[1,2-a]pyridin-3-yl)ethynyl)benzamide] | 50 to 500 nM | > 5000 nM | < 10 nM | > 100 nM | > 100 nM | 100 nM
Cc1cc(F)c(C(=O)Nc2cc(CN3CCN(S(C)(=O)=O)CC3)cc(C(F)(F)F)c2)cc1C#Cc1cnc2c(Nc3cnn(C)c3)cccn12 [Example 70, 2-fluoro-4-methyl-5-((8-((1-methyl-1H-pyrazol-4-yl)amino)imidazo[1,2-a]pyridin-3-yl)ethynyl)-N-(3-((4-(methylsulfonyl)piperazin-1-yl)methyl)-5-(trifluoromethyl)phenyl)benzamide] | 50 to 500 nM | > 5000 nM | < 10 nM | > 100 nM | > 100 nM | < 10 nM
Cc1cc(F)c(C(=O)Nc2cc(CN3CCN(C)C(=O)C3)cc(C(F)(F)F)c2)cc1C#Cc1cnc2c(Nc3cnn(C)c3)cccn12 [Example 71, 2-fluoro-4-methyl-5-((8-((1-methyl-1H-pyrazol-4-yl)amino)imidazo[1,2-a]pyridin-3-yl)ethynyl)-N-(3-((4-methyl-3-oxopiperazin-1-yl)methyl)-5-(trifluoromethyl)phenyl)benzamide] | 50 to 500 nM | > 5000 nM | < 10 nM | > 100 nM | 100 nM | < 10 nM
Cc1cc(F)c(C(=O)Nc2cc(CN3CC(OC(C)C)C3)cc(C(F)(F)F)c2)cc1C#Cc1cnc2c(Nc3cnn(C)c3)cccn12 [Example 72, 2-fluoro-N-(3-((3-isopropoxyazetidin-1-yl)methyl)-5-(trifluoromethyl)phenyl)-4-methyl-5-((8-((1-methyl-1H-pyrazol-4-yl)amino)imidazo[1,2-a]pyridin-3-yl)ethynyl)benzamide] | 50 to 500 nM | > 5000 nM | < 10 nM | > 100 nM | > 100 nM | < 10 nM
Cc1cc(F)c(C(=O)Nc2cc(Cn3ccnc3)cc(C(F)(F)F)c2)cc1C#Cc1cnc2c(Nc3cnn(C)c3)cccn12 [Example 73, N-(3-((1H-imidazol-1-yl)methyl)-5-(trifluoromethyl)phenyl)-2-fluoro-4-methyl-5-((8-((1-methyl-1H-pyrazol-4-yl)amino)imidazo[1,2-a]pyridin-3-yl)ethynyl)benzamide] | 50 to 500 nM | > 5000 nM | < 10 nM | 100 nM | 100 nM | < 10 nM
Cc1cc(F)c(C(=O)Nc2cc(Cn3cncn3)cc(C(F)(F)F)c2)cc1C#Cc1cnc2c(Nc3cnn(C)c3)cccn12 [Example 74, N-(3-((1H-1,2,4-triazol-1-yl)methyl)-5-(trifluoromethyl)phenyl)-2-fluoro-4-methyl-5-((8-((1-methyl-1H-pyrazol-4-yl)amino)imidazo[1,2-a]pyridin-3-yl)ethynyl)benzamide] | < 50 nM | > 5000 nM | < 10 nM | 100 nM | 100 nM | < 10 nM
Cc1cn(-c2cc(NC(=O)c3cc(C#Cc4cnc5c(Nc6cn[nH]c6)cccn45)c(C)cc3F)cc(C(C)(C)C#N)c2)cn1 [Example 75, 5-((8-((1H-pyrazol-4-yl)amino)imidazo[1,2-a]pyridin-3-yl)ethynyl)-N-(3-(2-cyanopropan-2-yl)-5-(4-methyl-1H-imidazol-1-yl)phenyl)-2-fluoro-4-methylbenzamide] | < 50 nM | > 5000 nM | < 10 nM | 100 nM | 100 nM | < 10 nM
Cc1cn(-c2cc(NC(=O)c3cc(C#Cc4cnc5c(Nc6cn[nH]c6)cccn45)c(C)cc3Cl)cc(C(C)(C)C#N)c2)cn1 [Example 76, 5-((8-((1H-pyrazol-4-yl)amino)imidazo[1,2-a]pyridin-3-yl)ethynyl)-2-chloro-N-(3-(2-cyanopropan-2-yl)-5-(4-methyl-1H-imidazol-1-yl)phenyl)-4-methylbenzamide] | < 50 nM | > 5000 nM | < 10 nM | 100 nM | 100 nM | < 10 nM
